Patent US20260262643A1, “HERBICIDAL BENZOXAZINES” (FMC CORPORATION, priority 2022, published 2026)

Legend:
barnyardgrass [1] = experiment: Test C preemergence; format: in vivo, Echinochloa crusgalli; conditions: for Barnyardgrass plant response rating: preemergence; for Plant response rating, Barnyardgrass: Preemergence
In short: (§1)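 Seeds sown in loam soil–sand blend received a directed preemergence soil spray of test chemical in non-phytotoxic solvent with surfactant; postemergence plants (2–10 cm, one- to two-leaf stage) were sprayed with the same formulation. Greenhouse-held 10 days, then visually rated for injury versus untreated controls, 0 (no effect) to 100 (complete control).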

blackgrass [2] = experiment: Test C preemergence; format: in vivo, Alopecurus myosuroides; conditions: for Blackgrass plant response rating: preemergence; for Plant response rating, Blackgrass: Preemergence
In short: as §1

corn [3] = experiment: Test C preemergence; format: in vivo, Zea mays; conditions: for Corn plant response rating: preemergence, 0 to 100 scale (0 no effect, 100 complete control)
In short: as §1

green foxtail [4] = experiment: Test C preemergence; format: in vivo, Setaria viridis; conditions: for Foxtail, Green plant response rating: preemergence, 0 to 100 scale (0 no effect, 100 complete control)
In short: as §1

kochia [5] = experiment: Test C preemergence; format: in vivo, Bassia scoparia; conditions: for Kochia plant response rating: preemergence, 0 to 100 scale (0 no effect, 100 complete control)
In short: as §1

oat, wild [6] = experiment: Test C preemergence; format: in vivo, Avena fatua; conditions: for Oat, Wild plant response rating: preemergence, 0 to 100 scale (0 no effect, 100 complete control)
In short: as §1

pigweed, palmer [7] = experiment: Test C preemergence; format: in vivo, Amaranthus palmeri; conditions: for Pigweed, Palmer plant response rating: preemergence, 0 to 100 scale (0 no effect, 100 complete control)
In short: as §1

ragweed [8] = experiment: Test C preemergence; format: in vivo, Ambrosia artemisiifolia; conditions: for Ragweed plant response rating: preemergence, 0 to 100 scale (0 no effect, 100 complete control)
In short: as §1

ryegrass, Italian [9] = experiment: Test C preemergence; format: in vivo, Lolium multiflorum; conditions: for Ryegrass, Italian plant response rating: preemergence, 0 to 100 scale (0 no effect, 100 complete control)
In short: as §1

soybean [10] = experiment: Test C preemergence; format: in vivo, Glycine max; conditions: for Soybean plant response rating: preemergence, 0 to 100 scale (0 no effect, 100 complete control)
In short: as §1

wheat [11] = experiment: Test C preemergence; format: in vivo, Triticum aestivum; conditions: for Wheat plant response rating: preemergence, 0 to 100 scale (0 no effect, 100 complete control)
In short: as §1

barnyardgrass [12] = experiment: Test C postemergence; format: in vivo, Echinochloa crusgalli; conditions: 10 days
In short: as §1

blackgrass [13] = experiment: Test C postemergence; format: in vivo, Alopecurus myosuroides; conditions: 10 days
In short: as §1

corn [14] = experiment: Test C postemergence; format: in vivo, Zea mays; conditions: 10 days
In short: as §1

green foxtail [15] = experiment: Test C postemergence; format: in vivo, Setaria viridis; conditions: 10 days
In short: as §1

kochia [16] = experiment: Test C postemergence; format: in vivo, Bassia scoparia; conditions: 10 days
In short: as §1

oat, wild [17] = experiment: Test C postemergence; format: in vivo, Avena fatua; conditions: 10 days
In short: as §1

pigweed, palmer [18] = experiment: Test C postemergence; format: in vivo, Amaranthus palmeri; conditions: 10 days
In short: as §1

ragweed [19] = experiment: Test C postemergence; format: in vivo, Ambrosia artemisiifolia; conditions: 10 days
In short: as §1

ryegrass, Italian [20] = experiment: Test C postemergence; format: in vivo, Lolium multiflorum; conditions: 10 days
In short: as §1

soybean [21] = experiment: Test C postemergence; format: in vivo, Glycine max; conditions: 10 days
In short: as §1

wheat [22] = experiment: Test C postemergence; format: in vivo, Triticum aestivum; conditions: 10 days
In short: as §1

galium = experiment: Test C postemergence; format: in vivo, Galium aparine; conditions: 10 days
In short: as §1

horseweed = experiment: Test C postemergence; format: in vivo, Erigeron canadensis; conditions: 10 days
In short: as §1

barnyardgrass [23] = experiment: Test D flooded paddy test; format: in vivo, Echinochloa crus-galli; conditions: 250 g ai/ha, applied to paddy water, visual rating after 13 to 14 days, scale 0 to 100 (0 no effect, 100 complete control)
In short: (§2)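 At the 2-leaf stage, floodwater 3 cm deep received the test compound; that depth persisted throughout. Plants scored visually 13 to 14 days on, 0 (no effect) to 100 (complete control), dash indicating no result.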

ducksalad = experiment: Test D flooded paddy test; format: in vivo, Heteranthera limosa; conditions: 250 g ai/ha, applied to paddy water, visual rating after 13 to 14 days, scale 0 to 100 (0 no effect, 100 complete control)
In short: as §2

rice = experiment: Test D flooded paddy test; format: in vivo, Oryza sativa; conditions: 250 g ai/ha, applied to paddy water, visual rating after 13 to 14 days, scale 0 to 100 (0 no effect, 100 complete control)
In short: as §2

sedge, umbrella = experiment: Test D flooded paddy test; format: in vivo, Cyperus difformis; conditions: 250 g ai/ha, applied to paddy water, visual rating after 13 to 14 days, scale 0 to 100 (0 no effect, 100 complete control)
In short: as §2

[24] = 500 g ai/ha, 0 to 100 scale (0 no effect, 100 complete control)
[25] = 125 g ai/ha, 0 to 100 scale, 0 no effect, 100 complete control
[26] = Preemergence, 125 g ai/ha, 0 to 100 scale, 0 no effect, 100 complete control
[27] = 500 g ai/ha, postemergence, 0 to 100 scale (0 no effect, 100 complete control)
[28] = Postemergence, 125 g ai/ha, 0 to 100 scale (0 no effect, 100 complete control)
[29] = 500 g ai/ha, visual rating after 10 days, 0 to 100 scale (0 no effect, 100 complete control)
[30] = Test C, 125 g ai/ha, 0 to 100 scale (0 no effect, 100 complete control)
[31] = 125 g ai/ha, postemergence, 0 to 100 scale, 0 no effect, 100 complete control
[32] = Postemergence, 500 g ai/ha, visual 0 to 100 scale (0 no effect, 100 complete control)

SMILES: CCOC[C@H]1CN(C(=O)c2cc(-n3cnc(C(C)C)n3)ccc2OC)c2cccc(Cl)c2O1 [Compound 341]
- Barnyardgrass plant response rating (barnyardgrass [1]; [24]): 100
- Plant response rating, Barnyardgrass (barnyardgrass [1]; [25]): 90
- Blackgrass plant response rating (blackgrass [2]; [24]): 80
- Plant response rating, Blackgrass (blackgrass [2]; [25]): 20
- Corn plant response rating (corn [3]; 500 g ai/ha): 30
- Plant response rating, Corn (corn [3]; [26]): 20
- Foxtail, Green plant response rating (green foxtail [4]; 500 g ai/ha): 100
- Plant response rating, Foxtail, Green (green foxtail [4]; [26]): 100
- Kochia plant response rating (kochia [5]; 500 g ai/ha): 100
- Plant response rating, Kochia (kochia [5]; [26]): 100
- Oat, Wild plant response rating (oat, wild [6]; 500 g ai/ha): 80
- Plant response rating, Oat, Wild (oat, wild [6]; [26]): 50
- Pigweed, Palmer plant response rating (pigweed, palmer [7]; 500 g ai/ha): 100
- Plant response rating, Pigweed, Palmer (pigweed, palmer [7]; [26]): 100
- Ragweed plant response rating (ragweed [8]; 500 g ai/ha): 100
- Plant response rating, Ragweed (ragweed [8]; [26]): 80
- Ryegrass, Italian plant response rating (ryegrass, Italian [9]; 500 g ai/ha): 100
- Plant response rating, Ryegrass, Italian (ryegrass, Italian [9]; [26]): 80
- Soybean plant response rating (soybean [10]; 500 g ai/ha): 60
- Plant response rating, Soybean (soybean [10]; [26]): 100
- Wheat plant response rating (wheat [11]; 500 g ai/ha): 30
- Plant response rating, Wheat (wheat [11]; [26]): 30
- Plant response rating, Barnyardgrass (barnyardgrass [12]; [27]): 70
- Plant response rating, Barnyardgrass (barnyardgrass [12]; [28]): 20
- Plant response rating, Blackgrass (blackgrass [13]; [27]): 50
- Plant response rating, Blackgrass (blackgrass [13]; [28]): 10
- Plant response rating, Corn (corn [14]; [27]): 80
- Plant response rating, Corn (corn [14]; [28]): 0
- Plant response rating, Foxtail, Green (green foxtail [15]; [27]): 70
- Plant response rating, Foxtail, Green (green foxtail [15]; [28]): 30
- Plant response rating, Kochia (kochia [16]; [27]): 90
- Plant response rating, Kochia (kochia [16]; [28]): 80
- Plant response rating, Oat, Wild (oat, wild [17]; [27]): 20
- Plant response rating, Oat, Wild (oat, wild [17]; [28]): 10
- Plant response rating, Pigweed, Palmer (pigweed, palmer [18]; [27]): 100
- Plant response rating, Pigweed, Palmer (pigweed, palmer [18]; [28]): 80
- Plant response rating, Ragweed (ragweed [19]; [27]): 90
- Plant response rating, Ragweed (ragweed [19]; [28]): 60
- Plant response rating, Ryegrass, Italian (ryegrass, Italian [20]; [27]): 60
- Plant response rating, Ryegrass, Italian (ryegrass, Italian [20]; [28]): 30
- Plant response rating, Soybean (soybean [21]; [27]): 100
- Plant response rating, Soybean (soybean [21]; [28]): 100
- Plant response rating, Wheat (wheat [22]; [27]): 20
- Plant response rating, Wheat (wheat [22]; [28]): 10
- Plant response rating, Galium (galium; [27]): 100
- Plant response rating, Galium (galium; [28]): 90
- Plant response rating, Horseweed (horseweed; [27]): 60
- Plant response rating, Horseweed (horseweed; [28]): 60
- Plant response rating, Barnyardgrass (Flood) (barnyardgrass [23]): 25
- Plant response rating, Ducksalad (Flood) (ducksalad): 70
- Plant response rating, Rice (Flood) (rice): 0
- Plant response rating, Sedge, Umbrella (Flood) (sedge, umbrella): 90

SMILES: Cc1ccc(-n2cnc(CC3CC3)n2)cc1C(=O)N1C[C@H](C)Oc2c(Cl)cccc21 [Compound 273]
- Plant response rating, Barnyardgrass (barnyardgrass [1]; [29]): 100
- Barnyardgrass plant response rating (barnyardgrass [1]; [30]): 40
- Plant response rating, Blackgrass (blackgrass [2]; [29]): 50
- Blackgrass plant response rating (blackgrass [2]; [30]): 0
- Corn plant response rating (corn [3]; 500 g ai/ha): 10
- Corn plant response rating (corn [3]; Test C, 125 g ai/ha): 0
- Foxtail, Green plant response rating (green foxtail [4]; 500 g ai/ha): 100
- Foxtail, Green plant response rating (green foxtail [4]; Test C, 125 g ai/ha): 100
- Kochia plant response rating (kochia [5]; 500 g ai/ha): 90
- Kochia plant response rating (kochia [5]; Test C, 125 g ai/ha): 60
- Oat, Wild plant response rating (oat, wild [6]; 500 g ai/ha): 80
- Oat, Wild plant response rating (oat, wild [6]; Test C, 125 g ai/ha): 20
- Pigweed, Palmer plant response rating (pigweed, palmer [7]; 500 g ai/ha): 100
- Pigweed, Palmer plant response rating (pigweed, palmer [7]; Test C, 125 g ai/ha): 90
- Ragweed plant response rating (ragweed [8]; 500 g ai/ha): 0
- Ragweed plant response rating (ragweed [8]; Test C, 125 g ai/ha): 0
- Ryegrass, Italian plant response rating (ryegrass, Italian [9]; 500 g ai/ha): 90
- Ryegrass, Italian plant response rating (ryegrass, Italian [9]; Test C, 125 g ai/ha): 70
- Soybean plant response rating (soybean [10]; 500 g ai/ha): 70
- Soybean plant response rating (soybean [10]; Test C, 125 g ai/ha): 10
- Wheat plant response rating (wheat [11]; 500 g ai/ha): 40
- Wheat plant response rating (wheat [11]; Test C, 125 g ai/ha): 0
- Plant response rating, Barnyardgrass (barnyardgrass [12]; [31]): 30
- Plant response rating, Barnyardgrass (barnyardgrass [12]; [32]): 70
- Plant response rating, Blackgrass (blackgrass [13]; [31]): 10
- Plant response rating, Blackgrass (blackgrass [13]; [32]): 80
- Plant response rating, Corn (corn [14]; [31]): 10
- Plant response rating, Corn (corn [14]; [32]): 30
- Plant response rating, Foxtail, Green (green foxtail [15]; [31]): 40
- Plant response rating, Foxtail, Green (green foxtail [15]; [32]): 90
- Plant response rating, Kochia (kochia [16]; [31]): 70
- Plant response rating, Oat, Wild (oat, wild [17]; [31]): 0
- Plant response rating, Pigweed, Palmer (pigweed, palmer [18]; [31]): 90
- Plant response rating, Ragweed (ragweed [19]; [31]): 40
- Plant response rating, Ryegrass, Italian (ryegrass, Italian [20]; [31]): 0
- Plant response rating, Soybean (soybean [21]; [31]): 100
- Plant response rating, Wheat (wheat [22]; [31]): 10
- Plant response rating, Galium (galium; [31]): 70
- Plant response rating, Galium (galium; [32]): 100
- Plant response rating, Horseweed (horseweed; [31]): 0
- Plant response rating, Horseweed (horseweed; [32]): 40
- Plant response rating, Barnyardgrass (Flood) (barnyardgrass [23]): 0
- Plant response rating, Ducksalad (Flood) (ducksalad): 15
- Plant response rating, Rice (Flood) (rice): 0
- Plant response rating, Sedge, Umbrella (Flood) (sedge, umbrella): 40
